Data as given in patent US20220098162A1, “APHTHYLAMINE COMPOUND AND BIOLOGICALLY ACCEPTABLE SALT THEREOF, PREPARATION METHOD THEREFOR, AND APPLICATION THEREOF” (Henan Radiomedical Science and Technology Co., Ltd, priority 2019, published 2022).
Counter-ions that a name gives are not always drawn.

What was measured:
Assay type in all cases: cell-based
[1] = tested on: PC9AR cells; assay: MTT experiment, PC9-AR cells; details: 48 hours, hydrochloride salt
Protocol: (§1) Experiment on Inducing Apoptosis of Breast Cancer, Colon Cancer and Lung Cancer Cancer Cells
(§2) Method: collecting logarithmic growth phase MDA-MB-231, MCF-7, HCT-116, PC9-AR, PC9-GR, PC9 cells, counting, adjusting the cell suspension concentration to 50000 cells/mL, adding 100 ul cell suspension to each well, that is, 5000 cells per well, and adding the above cancer cells to the hydrochloride of the naphthylamine compounds of 1a and 3a of the invention, to enable the final concentration of the hydrochloride of the naphthylamine compound in the system to be several gradients of 0.1, 0.3, 1, 3, 10, 30, 100, 300 (μmol/L), and continuing culturing for 48 hours; after treating with drug, adding 50 μL of Thiazole Blue reagent (1 mg/mL) to each well, incubating at 37° C. for 4 hours, shaking the plate to discard the liquid in the well, draining the water, absorbing the remaining liquid with filter paper, and then adding 100 μL of dimethyl sulfoxide; reacting on a horizontal shaker for 7-8 minutes, until the blue-violet crystals are completely dissolved; reading the value with a microplate reader, measuring the OD value at the absorption wavelength of 570 nm, recording the result. […]

[2] = tested on: HCT-116 cells; assay: MTT experiment, HCT-116 cells; details: Homo sapiens; HCT-116, MTT, 48 hours, hydrochloride salt
Protocol: as §1, §2

[3] = tested on: PC9GR cells; assay: MTT experiment, PC9-GR cells; details: 48 hours, hydrochloride salt
Protocol: as §1, §2

[4] = tested on: PC9 cells; assay: MTT experiment, PC9 cells; details: Homo sapiens, PC-9, 48 hours, hydrochloride salt
Protocol: as §1, §2

[5] = tested on: MDA-MB-231 cells; assay: MTT experiment, MDA-MB-231 cells; details: Homo sapiens; MDA-MB-231, MTT, 48 hours, hydrochloride salt
Protocol: as §1, §2

[6] = tested on: p-STAT3 in HCC827 cells; assay: Westernblot experiment, STAT3 and p-STAT3 in IL-6 stimulated HCC827 cells; details: HCC827, 10, 30, 100 and 300 μmol/L, IL-6 30 ng/mL
Protocol: (1) Taking HCC827 cells in logarithmic growth phase, digesting them with trypsin, preparing a single cell suspension with a density of 300,000 cells/mL with RPMI-1640 medium containing 10% fetal bovine serum, and adding 2 mL of cell suspension to each well to inoculate a 6-well cell culture plate.
(2) Incubating in a 37° C., 5% CO2 incubator. After the cells adhere to the wall, adding the experimental group with different concentrations of the drug SMY002 (3a), and the concentration gradients are: 10, 30, 100 and 300 μmol/L; adding 30 μL of interleukin-6 (IL-6) one hour later at a concentration of […] to stimulate the cells, and the final concentration of interleukin-6 (IL-6) is 30 ng/mL.
(3) After continuing to culture for 0.5 h, lysing the cells with RIPA lysis buffer to collect proteins. […]
(4) Transferring the cell supernatant to a clean centrifuge tube. Dividing the cell supernatant into two parts: taking 5 μL and add it to a 1.5 mL centrifuge tube for BCA to measure the protein content, then adding 45 μL of 1× phosphate buffered saline (PBS) and mixing well for later use; quantitatively taking 140 μL of the remaining cell supernatant, adding 35 μL of 5×SDS loading buffer, boiling in boiling water for 8 minutes after mixing, and storing in a refrigerator at −20° C. after centrifugation. […]

[7] = tested on: MCF-7 cells; assay: MTT experiment, MCF-7 cells; details: Homo sapiens, MCF7; MCF-7, MTT, 48 hours, hydrochloride salt
Protocol: as §1, §2

Structure (SMILES)	IC50 [1]	IC50 [2]	IC50 [3]	IC50 [4]	IC50 [5]	amount of STAT3 protein expressed (Westernblot) [6]	expression of p-STAT3 (Westernblot) [6]	IC50 [7]
Nc1ccc(OC(=O)c2ccc(OCCN3CCCCC3)cc2)c2ccccc12 [SMY001 (1a), 4-(2-(piperidin-1-yl)ethoxy) benzoic acid-4-amino-1-naphthyl ester dihydrochloride]	38.5 µM	25.4 µM	30.4 µM	26.6 µM	14.9 µM	–	–	–
Nc1ccc(OCc2ccc(OCCN3CCCCC3)cc2)c2ccccc12 [SMY002 (3a), 4-(4-(2-(piperidin-1-yl)ethoxy)benzyloxy)-1-naphthylamine dihydrochloride]	0.655 µM	1.98 µM	0.472 µM	0.473 µM	1.81 µM	remains unchanged	significantly inhibits	2.04 µM
